For the assay, the system named is M. mycetomatis genome strain MM55. The assay can be described thus: CLSI M38-A2 based in vitro susceptibility screening (XTT or resazurin), growth at fixed concentration. In kind it is cell-based, Madurella mycetomatis. The settings on record: Madurella mycetomatis; for Percent fungal survival at 100 µM: read-out: Percentage survival at 100um, 100 uM A (second replicate column).

The mark [1] stands for this setting: 25 uM, mean of replicates, read-out: Percentage survival at 25um, 25 uM mean.
The mark [2] stands for this setting: 25 uM, replicate A, read-out: Percentage survival at 25um, 25 um A.
Where [3] appears, read: 25 uM, replicate B, read-out: Percentage survival at 25um, 25 uM B.
The mark [4] stands for this setting: 25 uM, replicate C, read-out: Percentage survival at 25um, 25 uM C.
Setting [5] is: mean of replicates, read-out: Percentage survival at 100um, 100 uM mean.
[6] abbreviates: replicate 1, read-out: Percentage survival at 100um, 100 uM A.
Where [7] appears, read: replicate 2, read-out: Percentage survival at 100um, 100 uM A.
[8] abbreviates: replicate 3, read-out: Percentage survival at 100um, 100 uM A.
The mark [9] stands for this setting: 25 uM, mean of replicates, MM55, read-out: Percentage survival at 25um, 25 uM mean.
Where [10] appears, read: 25 uM, replicate A, MM55, read-out: Percentage survival at 25um, 25 um A.
Setting [11] is: 25 uM, replicate B, MM55, read-out: Percentage survival at 25um, 25 uM B.
The mark [12] stands for this setting: 25 uM, replicate C, MM55, read-out: Percentage survival at 25um, 25 uM C.
Where [13] appears, read: mean of replicates, MM55, read-out: Percentage survival at 100um, 100 uM mean.
[14] abbreviates: replicate 1, MM55, read-out: Percentage survival at 100um, 100 uM A.
The mark [15] stands for this setting: replicate 2, MM55, read-out: Percentage survival at 100um, 100 uM A.
The mark [16] stands for this setting: replicate 3, MM55, read-out: Percentage survival at 100um, 100 uM A.
[17] abbreviates: 25 uM, mean of three, M. mycetomatis MM55, read-out: Percentage survival at 25um, 25 uM mean.
Setting [18] is: 25 uM, replicate A, M. mycetomatis MM55, read-out: Percentage survival at 25um, 25 um A.
[19] abbreviates: 25 uM, replicate B, M. mycetomatis MM55, read-out: Percentage survival at 25um, 25 uM B.
[20] abbreviates: 25 uM, replicate C, M. mycetomatis MM55, read-out: Percentage survival at 25um, 25 uM C.
[21] abbreviates: mean of three, M. mycetomatis MM55, read-out: Percentage survival at 100um, 100 uM mean.
[22] abbreviates: replicate 1, M. mycetomatis MM55, read-out: Percentage survival at 100um, 100 uM A (first replicate column).
Where [23] appears, read: replicate 2, M. mycetomatis MM55.
The mark [24] stands for this setting: replicate 3, M. mycetomatis MM55, read-out: Percentage survival at 100um, 100 uM A (third replicate column).
Where [25] appears, read: 25 uM, mean of three replicates, read-out: Percentage survival at 25um, 25 uM mean.
The mark [26] stands for this setting: mean of three replicates, read-out: Percentage survival at 100um, 100 uM mean.

The structures appear in SMILES notation. Like-named read-outs stand apart in the source and are kept apart here.

For `C=CCc1cc(Cc2cnc(N)nc2N)cc(OC)c1O` [MMV1580849], the activity at 25 µM by setting is: under setting [1], 96.4%; under setting [2], 100%; under setting [3], 95.7%; under setting [4], 93.6%. For the same compound, the activity at 100 µM stood at 91.3% under setting [5], 101% under setting [6], 86.2% under setting [7] and 86.7% under setting [8].

For the compound `O=C(CSc1nnc(Br)n1-c1ccc(C2CC2)c2ccccc12)Nc1ccc(C(=O)O)cc1Cl` [MMV1782213], the activity at 25 µM was found to be 81% under setting [9], 93.7% under setting [10], 82% under setting [11] and 67.3% under setting [12]. Further, the activity at 100 µM reads like this: under setting [13], 74.5%; under setting [14], 63.5%; under setting [15], 115%; under setting [16], 45.2%.

`CCCCCCCc1[nH]c2ccccc2c(=O)c1O` [MMV1578561]: the activity at 25 µM is 76.2% under setting [17], 76.9% under setting [18], 79.7% under setting [19] and 71.9% under setting [20]. The activity at 100 µM amounted to 72.1% under setting [21], 73.7% under setting [22] and 73.2% under setting [24]. For the same compound, the Percent fungal survival at 100 µM under setting [23] is 69.3%.

In the case of `CC(C)Nc1nc2cc(Cl)c(Cl)cc2n1[C@H]1O[C@@H](CO)[C@H](O)[C@@H]1O` [MMV1593521], the activity at 25 µM by setting is: under setting [9], 93.6%; under setting [10], 104%; under setting [11], 89.6%; under setting [12], 87%. The activity at 100 µM was determined as 81.8% under setting [13], 90.8% under setting [14], 82% under setting [15] and 72.5% under setting [16].

Consider `Nc1nc(NC2Cc3ccc(F)cc3C2)nc(N2CCCCC2)n1` (centres unmarked) [MMV1580839], for which the activity at 25 µM under setting [1] was 40.6%, the activity at 25 µM under setting [2] came to 58.8%, the activity at 25 µM under setting [3] worked out at 53.9% and the activity at 25 µM under setting [4] worked out at 9.06%. The activity at 100 µM under setting [5] was 1.55%, the activity at 100 µM under setting [6] is -0.246%, the activity at 100 µM under setting [7] is 0.453% and the activity at 100 µM under setting [8] was 4.45%.

For `Nc1nc2c(Cc3cccnc3)c[nH]c2c(=O)[nH]1` [MMV1782355], the activity at 25 µM is, setting by setting: under setting [10], 97.7%; (read-out: Percentage survival at 25um, 25 uM B) 95.7%; (read-out: Percentage survival at 25um, 25 uM C) 78.5%; (read-out: Percentage survival at 25um, 25 uM mean) 90.6%. Besides, the activity at 100 µM by setting is: under setting [13], 88.4%; under setting [14], 88.7%; under setting [15], 105%; under setting [16], 71.4%.

With `CCCCc1ccc(-c2cc(C(=O)O)cc(-c3ccc(Cl)cc3)n2)cc1` [MMV1580852], the activity at 25 µM is, setting by setting: under setting [25], 33.8%; under setting [2], 3.56%; under setting [3], 69.1%; under setting [4], 28.7%. In addition, the activity at 100 µM reads like this: under setting [26], 4.07%; (replicate 1, read-out: Percentage survival at 100um, 100 uM A (first replicate column)) 5.06%; (replicate 3, read-out: Percentage survival at 100um, 100 uM A (third replicate column)) 7.62%. Moreover, the Percent fungal survival at 100 µM (replicate 2) was -0.471%.

`CCCC(=O)OCCc1ccccc1` [MMV1578899]: the activity at 25 µM is, setting by setting: under setting [17], 85.3%; under setting [18], 87.9%; under setting [19], 88.2%; under setting [20], 79.8%. Moreover, the activity at 100 µM worked out at 87.4% under setting [21], 89.3% under setting [22] and 84.5% under setting [24]. The Percent fungal survival at 100 µM under setting [23] was 88.3%.

With `CC(=O)O[C@H]1C[C@@]2(C)[C@@H](C[C@@H](O)[C@H]3[C@@]4(C)CC[C@@H](O)[C@@H](C)[C@@H]4CC[C@@]32C)/C1=C(\CCC=C(C)C)C(=O)O` [MMV1578575], the activity at 25 µM reads like this: under setting [17], 83.8%; under setting [18], 96.4%; under setting [19], 83.3%; under setting [20], 71.6%. Also, the activity at 100 µM amounted to 84.3% under setting [21], 78.5% under setting [22] and 84.8% under setting [24]. Further, the Percent fungal survival at 100 µM under setting [23] was found to be 89.6%.

Turning to `COc1cc(Cc2cc(N)nc(N)n2)cc(OC)c1OC` [MMV1579846], the activity at 25 µM is, setting by setting: under setting [1], 80.9%; under setting [2], 87.9%; under setting [3], 75.2%; under setting [4], 79.5%. Moreover, the activity at 100 µM reads like this: under setting [5], 95.4%; under setting [6], 83.5%; under setting [7], 94.2%; under setting [8], 108%.

`CCCCCOc1ccc(/C=C2\Oc3c(ccc(O)c3O)C2=O)c(O)c1` [MMV1580851]: the activity at 25 µM reads like this: under setting [17], 102%; under setting [18], 93.6%; under setting [19], 82.3%; under setting [20], 129%. Moreover, the activity at 100 µM stood at 90% under setting [21], 82.6% under setting [22] and 89% under setting [24]. Further, the Percent fungal survival at 100 µM under setting [23] came to 98.4%.

Turning to `COc1ccccc1CN[C@H]1C2CCN(CC2)[C@H]1C(c1ccccc1)c1ccccc1` [MMV690480], the activity at 25 µM is, setting by setting: under setting [25], 83.2%; under setting [2], 61.4%; under setting [3], 107%; under setting [4], 81.2%. The activity at 100 µM reads like this: (first replicate column, read-out: Percentage survival at 100um, 100 uM A) -1.66%; under setting [26], 27.7%; (second replicate column, read-out: Percentage survival at 100um, 100 uM A) 2.79%; (third replicate column, read-out: Percentage survival at 100um, 100 uM A) 82%.

With `Nc1nc(O)ncc1F` [MMV004508], the activity at 25 µM runs as follows: (25 uM, mean, read-out: Percentage survival at 25um, 25 uM mean) 84%; under setting [2], 87.6%; under setting [3], 87.9%; under setting [4], 76.6%. The activity at 100 µM was 89.4% (mean, read-out: Percentage survival at 100um, 100 uM mean); 93.5% (replicate (first column), read-out: Percentage survival at 100um, 100 uM A); 81.4% (replicate (second column), read-out: Percentage survival at 100um, 100 uM A); 93.4% (replicate (third column), read-out: Percentage survival at 100um, 100 uM A).

Regarding `C/C(=N\NC(=O)C1CC1c1ccccc1)c1ccc(NC(=O)c2ccco2)cc1` (centres unmarked) [MMV1580487], the activity at 25 µM is, setting by setting: under setting [9], 83.7%; under setting [10], 79.1%; under setting [11], 93.7%; under setting [12], 78.4%. Also, the activity at 100 µM runs as follows: under setting [13], 85.2%; under setting [14], 91.2%; under setting [15], 88%; under setting [16], 76.5%.

Turning to `COc1ccc(C[C@@H](C)[C@@H](C)Cc2ccc(OC)c(OC)c2)cc1OC` [MMV1581036], the activity at 25 µM by setting is: under setting [9], 68.5%; under setting [10], 72.1%; under setting [11], 71.5%; under setting [12], 61.9%. For the same compound, the activity at 100 µM came to 52.6% under setting [13], 50.8% under setting [14], 58.7% under setting [15] and 48.3% under setting [16].

`Oc1ccc2[nH]c(-c3ccccc3)nc2c1` [MMV292173]: the activity at 25 µM under setting [1] is 89.9%, the activity at 25 µM under setting [2] was 82.5%, the activity at 25 µM under setting [3] worked out at 95.1% and the activity at 25 µM under setting [4] was 92%. For the same compound, the activity at 100 µM was 93.2% under setting [5], 100% under setting [6], 85.4% under setting [7] and 94.1% under setting [8].

(Values after paper PMC8815882, “Screening the pandemic response box identified benzimidazole carbamates, Olorofim and ravuconazole as promising drug candidates for the treatment of eumycetoma” (PLoS Neglected Tropical Diseases, 2022).)
